Data as given in publication PMC5114172 (Journal of applied toxicology : JAT, 2016).
Read-outs that look alike come from different tables or passages of the source.

How the values were obtained:
[1] = system: MD-PBMCs; experiment: IL-1β secretion; assay type: cell-based, human
[2] = system: monocyte-depleted PBMCs; details: MD-PBMCs, ref Brown and Whalen, 2015, cited from earlier work
[3] = system: highly purified human NKs; details: NK cells, ref Brown and Whalen, 2015, cited from earlier work

Structure (SMILES): CC(=O)N[C@@H](Cc1ccc(O)cc1)C(=O)N[C@H](C(=O)N[C@@H](C)C(=O)N[C@@H](CC(=O)O)C(=O)CCl)C(C)C [Caspase-1 Inhibitor II, reference compound]
- effect on baseline IL-1β production ([1]; 50 μM, cells from each donor, p<0.05): significantly decreased
- Interleukin 1 beta secreted ([1]; donor F240, 24 h, Caspase-1 inhibitor II 50 μM alone (0 DBT)): 237 ± 19 pg/mL
- Interleukin 1 beta secreted ([1]; donor F242, 24 h, Caspase-1 inhibitor II 50 μM alone (0 DBT)): 460 ± 15 pg/mL
- Interleukin 1 beta secreted ([1]; donor F244, 24 h, Caspase-1 inhibitor II 50 μM alone (0 DBT)): 233 ± 11 pg/mL
- Interleukin 1 beta secreted ([1]; donor F245, 24 h, Caspase-1 inhibitor II 50 μM alone (0 DBT)): 150 ± 8 pg/mL
- Interleukin 1 beta secreted ([1]; donor F254, 24 h, Caspase-1 inhibitor II 50 μM alone (0 DBT)): 39 ± 4 pg/mL

Structure (SMILES): CC(C)(C)c1ccc(S(=O)(=O)/C=C/C#N)cc1 [BAY 11-7085, reference compound]
- Interleukin 1 beta secreted ([1]; donor F244, 24 h, BAY 11-7085 alone (0 DBT)): 836 ± 8 pg/mL
- Interleukin 1 beta secreted ([1]; donor F245, 24 h, BAY 11-7085 alone (0 DBT)): 536 ± 51 pg/mL
- Interleukin 1 beta secreted ([1]; donor F333, 24 h, BAY 11-7085 alone (0 DBT)): 2039 ± 62 pg/mL
- Interleukin 1 beta secreted ([1]; donor F334, 24 h, BAY 11-7085 alone (0 DBT)): 703 ± 70 pg/mL
- effect on baseline IL-1β secretion ([1]; inhibitor alone): varying effects

Structure (SMILES): N#CC(=C(/N)Sc1ccccc1N)/C(C#N)=C(/N)Sc1ccccc1N [U0126, reference compound]
- Interleukin 1 beta secreted ([1]; donor F240, 24 h, U0126 50 μM alone (0 DBT)): 1756 ± 54 pg/mL
- Interleukin 1 beta secreted ([1]; donor F242, 24 h, U0126 50 μM alone (0 DBT)): 479 ± 29 pg/mL
- Interleukin 1 beta secreted ([1]; donor F244, 24 h, U0126 50 μM alone (0 DBT)): 119 ± 28 pg/mL
- Interleukin 1 beta secreted ([1]; donor F245, 24 h, U0126 50 μM alone (0 DBT)): 255 ± 25 pg/mL

Structure (SMILES): Oc1ccc(-c2nc(-c3ccncc3)c(-c3ccc(F)cc3)[nH]2)cc1 [SB202190, reference compound]
- effect on baseline secretion ([1]; 3 of the 4 donors, in 1 donor it greatly increased secretion): significantly decreased
- Interleukin 1 beta secreted ([1]; donor F247, 24 h, SB202190 alone (0 DBT)): 1613 ± 141 pg/mL
- Interleukin 1 beta secreted ([1]; donor F262, 24 h, SB202190 alone (0 DBT)): 149 ± 41 pg/mL
- Interleukin 1 beta secreted ([1]; donor F372, 24 h, SB202190 alone (0 DBT)): 36 ± 3 pg/mL
- Interleukin 1 beta secreted ([1]; donor F385, 24 h, SB202190 alone (0 DBT)): 357 ± 61 pg/mL

Structure (SMILES): CCC[CH2][Sn]([CH2]CCC)[CH2]CCC [TBT, tributyltin]
- fold increase in IL-1β secretion ([2]; donor F142, 24 h, 50 nM TBT): 2.1 fold
- fold increase in IL-1β secretion ([2]; donor F142, 24 h, 100 nM TBT): 1.8 fold
- fold increase in IL-1β secretion ([2]; donor F145, 24 h, 50 nM TBT): 1.8 fold
- fold increase in IL-1β secretion ([2]; donor F145, 24 h, 100 nM TBT): 1.5 fold
- fold increase in IL-1β secretion ([2]; third common donor (F152), 24 h, 50 nM TBT): 11 fold
- fold increase in IL-1β secretion ([3]; donor KB169, 50 nM TBT): 7.7 fold
- fold increase in IL-1β secretion ([3]; donor KB169, 100 nM TBT): 6.3 fold
